{"source": "paper PMC10057480", "about": "“Expanding the Library of 1,2,4-Oxadiazole Derivatives: Discovery of New Farnesoid X Receptor (FXR) Antagonists/Pregnane X Receptor (PXR) Agonists” (Molecules, 2023)", "type_in_all_cases": "cell-based", "key": {"FXR": {"biological_target": "T1, FXR (Homo sapiens, UniProt Q96RI1)", "T1 construct": "expressed in transfected cells; host or cells: HepG2", "T1 sequence (Q96RI1 1-486)": "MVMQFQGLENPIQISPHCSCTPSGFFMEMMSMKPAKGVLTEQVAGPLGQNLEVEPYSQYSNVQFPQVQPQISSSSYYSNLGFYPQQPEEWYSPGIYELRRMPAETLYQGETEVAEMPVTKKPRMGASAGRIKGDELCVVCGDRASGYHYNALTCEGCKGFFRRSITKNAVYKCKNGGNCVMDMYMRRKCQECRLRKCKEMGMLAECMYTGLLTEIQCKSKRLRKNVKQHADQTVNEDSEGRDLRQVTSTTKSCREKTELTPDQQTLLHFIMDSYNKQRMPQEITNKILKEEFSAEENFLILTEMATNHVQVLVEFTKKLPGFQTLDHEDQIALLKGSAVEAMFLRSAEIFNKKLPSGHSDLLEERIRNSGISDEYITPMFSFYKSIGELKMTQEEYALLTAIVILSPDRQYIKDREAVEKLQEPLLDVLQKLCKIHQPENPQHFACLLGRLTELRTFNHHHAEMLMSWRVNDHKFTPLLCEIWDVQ", "assay": "FXR luciferase reporter transactivation assay (antagonism) on HepG2 cells", "conditions": "at least three experiments; for FXR Antagonism Eff (%): HepG2 transactivation, compounds at 50 μM, percent inhibition of transactivation set at 100%, mean ± SD; for IC50: transactivation assay, concentration-response, mean ± SEM", "procedure": "The antagonistic activity on FXR was investigated using HepG2 cells transfected with 100 ng of pSG5-FXR and pSG5-RXR, 200 ng of the reporter vector p(hsp27)-TK-LUC containing the FXR response element, and 100 ng of the pGL4.70 vector encoding the human Renilla gene used as a transfection control. […] In another experimental setting, HepG2 cells were transfected using 100 ng of pSG5-PXR, 100 ng of pSG5-RXR, and 100 ng of pGL4.70, along with the reporter vector pGL3(henance)PXRE. At 24 h post-transfection, cells were stimulated with rifaximin 10 μM (as a positive control) or compounds 2–11 (10 μM). The specificity of compounds 5 and 11 versus FXR and PXR was tested using HepG2 cells transiently transfected with 200 ng of the reporter vector p(UAS)5XTKLuc, 100 ng of a vector containing the ligand binding domain of LXRα or LXRβand 100 ng of pGL4.70, a vector encoding the human Renilla gene. At 24 h post-transfection, cells were stimulated for 18 h with GW3965 (5 μM), compounds 5 and 11 (10 μM), and the combination of GW3965 plus 5 or 11 (50 μM). Cellular lysate was assayed for luciferase and Renilla activities after 18 h using the Dual-Luciferase Reporter assay system (E1980, Promega, Madison, WI, USA). The activity of luciferase was measured using the Glomax 20/20 luminometer (Promega, Madison, WI, USA) and normalized with Renilla activities."}, "[1]": {"test_system": "FXR target genes (BSEP, OSTα, NTCP) in HepG2 cells", "assay": "qPCR of FXR target genes in HepG2 cells", "conditions": "6-ECDCA 10 μM plus compound", "procedure": "HepG2 and CaCo2 cell lines, obtained from ATCC, were routinely cultured in Eagle’s MEM and high-glucose DMEM, respectively, supplemented with 10% FBS, 1% glutamine, and penicillin/streptomycin. For in vitro experiments, HepG2 (2 × 106) cells were stimulated with 6-ECDCA at a concentration of 10 µM alone or in combination with compound 5 or 11, and CaCo2 cells were exposed to TNFα (100 ng/mL) alone or in combination with rifaximin, compound 5, or 11.\nTotal RNA was isolated from the HepG2 and CaCo2 cell lines using TRI reagent (Zymo Research) and Direct-zol™ RNA MicroPrep w/Zymo-Spin™ IIC Columns (Zymo Research, Irvine, CA, USA). After purification from genomic DNA using DNase I (Thermo Fisher Scientific, Waltham, MA, USA), 2 μg of RNA from each sample was reverse transcribed using Kit FastGene Scriptase Basic (Nippon Genetics, Mariaweilerstraße, Düren, Germany) in 20-μL of reaction volume, and 50 ng of cDNA was amplified in a 20-μL solution containing 200 nM of each primer and 10 μL of PowerUp™ SYBR™ Green Master Mix (Thermo Fisher Scientific, Waltham, MA, USA) using a Quantstudio 3 system (Applied Biosystems, Foster City, CA, USA). The relative mRNA expression was calculated according to the ΔCt method. The primer used were as follows (forward and reverse): hGapdh (for […]; rev […]), hBsep (for […]; rev […]), hOstα (for […]; rev […]), hNtcp (for […]; rev […]), hPxr (for GCAAGGGCTTTTTCAGGAG; rev GGGTCTTCCGGGTGATCT), hIl-8 (for […]; rev […]), hIl-1β (for […]; rev […])."}, "PXR": {"biological_target": "T2, PXR (Homo sapiens, UniProt O75469)", "T2 construct": "expressed in transfected cells; host or cells: HepG2", "T2 sequence (O75469 1-434)": "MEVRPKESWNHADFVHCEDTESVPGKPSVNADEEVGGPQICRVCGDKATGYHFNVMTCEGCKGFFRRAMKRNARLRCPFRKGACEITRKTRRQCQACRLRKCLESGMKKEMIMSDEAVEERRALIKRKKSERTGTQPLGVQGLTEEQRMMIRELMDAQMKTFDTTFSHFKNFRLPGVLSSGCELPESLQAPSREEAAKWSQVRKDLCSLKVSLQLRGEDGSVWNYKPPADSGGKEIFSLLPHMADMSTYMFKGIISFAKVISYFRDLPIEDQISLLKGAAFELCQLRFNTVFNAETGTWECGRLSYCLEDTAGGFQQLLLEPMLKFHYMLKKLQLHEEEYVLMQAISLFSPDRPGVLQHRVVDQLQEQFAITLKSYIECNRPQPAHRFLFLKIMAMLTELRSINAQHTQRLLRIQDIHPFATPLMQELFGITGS", "T2 sequence (P19793 1-462 partner)": "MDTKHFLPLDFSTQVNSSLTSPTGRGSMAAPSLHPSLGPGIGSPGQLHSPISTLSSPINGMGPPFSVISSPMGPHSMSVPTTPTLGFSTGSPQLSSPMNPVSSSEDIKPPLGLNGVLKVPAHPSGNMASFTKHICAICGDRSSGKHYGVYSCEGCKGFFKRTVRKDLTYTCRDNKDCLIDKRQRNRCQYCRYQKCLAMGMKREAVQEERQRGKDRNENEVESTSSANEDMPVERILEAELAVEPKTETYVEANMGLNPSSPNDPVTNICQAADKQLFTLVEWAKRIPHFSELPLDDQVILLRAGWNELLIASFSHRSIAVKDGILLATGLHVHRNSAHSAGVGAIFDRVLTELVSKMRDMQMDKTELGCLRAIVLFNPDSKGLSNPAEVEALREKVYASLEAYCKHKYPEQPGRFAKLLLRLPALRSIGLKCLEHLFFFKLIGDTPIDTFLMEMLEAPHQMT", "assay": "PXR luciferase reporter transactivation assay (agonism) on HepG2 cells", "conditions": "concentration-response, mean ± SEM, at least three experiments"}}, "note": "“And” between values parts separate entries of the source, which are not always exact repeats. Equal values may be shown once."}
{"smiles": "CCCCCN1CCC(c2nc(-c3ccc4ccccc4c3)no2)CC1", "note": "[Compound 5, 3-(Naphthalen-2-yl)-5-(1-pentylpiperidin-4-yl)-1,2,4-oxadiazole]", "values": [{"measurement": "FXR Antagonism Eff (%)", "setting": "FXR", "result": "66% and 66 ± 1%"}, {"measurement": "IC50", "setting": "FXR", "result": "8.4 ± 2", "unit": "µM"}, {"measurement": "Effect on BSEP mRNA expression induced by 6-ECDCA", "setting": "[1]", "result": "reversed the effect"}, {"measurement": "Effect on NTCP mRNA expression", "setting": "[1]", "result": "showed antagonistic activity"}, {"measurement": "Effect on OSTα mRNA expression induced by 6-ECDCA", "setting": "[1]", "result": "only a trend"}, {"measurement": "EC50", "setting": "PXR", "result": "6.4 ± 0.1", "unit": "µM"}]}
{"smiles": "OCc1ccc(CN2CCC(c3nc(-c4ccc5ccccc5c4)no3)CC2)cc1", "note": "[Compound 11, 5-[1-(4-(Hydroxymethyl)benzyl)piperidin-4-yl]-3-(naphthalen-2-yl)-1,2,4-oxadiazole]", "values": [{"measurement": "FXR Antagonism Eff (%)", "setting": "FXR", "result": "72% and 72 ± 6%"}, {"measurement": "IC50", "setting": "FXR", "result": "4.4 ± 0.4", "unit": "µM"}, {"measurement": "Effect on BSEP mRNA expression induced by 6-ECDCA", "setting": "[1]", "result": "reversed the effect"}, {"measurement": "Effect on OSTα mRNA expression induced by 6-ECDCA", "setting": "[1]", "result": "only a trend"}, {"measurement": "EC50", "setting": "PXR", "result": "7.5 ± 1", "unit": "µM"}]}
